Patent publication US20210068395A1, “METHODS OF APPLYING ONE OR MORE CERTAIN HETEROARYL-1,2,4-TRIAZOLE AND HETEROARYL-TETRAZOLE COMPOUNDS TO CONTROL DAMAGE ON PLANTS, PROPAGATION MATERIAL THEREOF, AND PLANT DERIVED PRODUCTS” (SYNGENTA CROP PROTECTION AG, priority 2018, published 2021)

Columns and labels:
Type in all cases: in vivo
[1] = test system: Carpocapsa (Cydia) Pomonella (Codling Moth); test: Carpocapsa (Cydia) pomonella larvicide, feeding/contact; conditions: 336 h, test rate 50 ppm, L1 larvae on diet cubes, 14 days after infestation, read-out: control in at least one of the two categories (mortality or growth inhibition)
Description: Diet cubes coated with paraffin were sprayed with diluted test solutions in an application chamber. After drying off the treated cubes (10 replicates) were infested with 1 L1 larvae. Samples were incubated at 26-27° C. and checked 14 days after infestation for mortality and growth inhibition.

[2] = test system: Chilo suppressalis (Striped Stem Borer); test: Chilo suppressalis larvicide, feeding/contact; conditions: 120 h, test rate 200 ppm, L2 larvae on sprayed rice plants, 5 days after application
Description: Rice plants were treated in a spray chamber, cut off and placed into petri dishes containing wet filter paper. 10 L2 larvae were infested and covered up with a cotton filter and a lid. 5 days after application samples were assessed for mortality.

[3] = test system: Myzus persicae (Green Peach Aphid); test: Myzus persicae feeding activity (sucrose solution, Parafilm); conditions: 120 h, test rate 12.5 ppm, in sucrose solution, 5 days after infestation
Description: Test compounds prepared from 10,000 ppm DMSO stock solutions were applied by pipette into 24-well microtiter plates and mixed with sucrose solution. The plates were closed with a stretched Parafilm. A plastic stencil with 24 holes was placed onto the plate and infested pea seedlings were placed directly on the Parafilm. The infested plate was closed with a gel blotting paper and another plastic stencil and then turned upside down. The samples were assessed for mortality 5 days after infestation.

[4] = test system: Myzus persicae (Green Peach Aphid); test: Myzus persicae feeding/contact activity; conditions: foliar, 144 h, application rate 200 ppm, sunflower leaf discs sprayed, 6 days after infestation
Description: Sunflower leaf discs were placed onto agar in a 24-well microtiter plate and sprayed with aqueous test solutions prepared from 10,000 ppm DMSO stock solutions. After drying, the leaf discs were infested with an aphid population of mixed ages. The samples were assessed for mortality 6 days after infestation.

[5] = test system: Euschistus heros (Neotropical Brown Stink Bug); test: Euschistus heros feeding/contact activity; conditions: 120 h, application rate 200 ppm, N2 nymphs on soybean leaves, 5 days after infestation, read-out: control in at least one of the two categories (mortality or growth inhibition)
Description: Soybean leaves on agar in 24-well microtiter plates were sprayed with aqueous test solutions prepared from 10,000 ppm DMSO stock solutions. After drying the leaves were infested with N2 nymphs. The samples were assessed for mortality and growth inhibition 5 days after infestation.

[6] = test system: Myzus persicae (Green Peach Aphid); test: Myzus persicae systemic activity; conditions: 144 h, test rate 24 ppm, roots of pea seedlings in test solution, 6 days
Description: Roots of pea seedlings infested with an aphid population of mixed ages were placed directly into aqueous test solutions prepared from 10,000 DMSO stock solutions. The samples were assessed for mortality 6 days after placing seedlings into test solutions.

[7] = test system: Chrysodeixis includens (Soybean Looper); test: Chrysodeixis includens larvicide, feeding/contact; conditions: 120 h, test rate 50 ppm, L2 larvae on soybean leaves, 5 days after infestation, read-out: control in at least one of the two categories (mortality or growth inhibition)
Description: Soybean plants were treated in a spray chamber, cut off and placed into petri dishes containing wet filter paper. 1 d after application leaves were infested with 5 L2 larvae and covered with a fabric filter and plastic lids. 5 days after infestation the samples were assessed for mortality and growth inhibition.

[8] = test system: Plutella xylostella (Diamond Back Moth); test: Plutella xylostella feeding/contact activity, 96-well artificial diet; conditions: 216 h, application rate 500 ppm, 9 days after infestation
Description: 1, 2, 3, 4, 17, 19, 23, 26, 39, 41, 42, 54, 55, 56 Plutella xylostella (Diamond Back Moth):Feeding/Contact Activity 96-well microtiter plates containing artificial diet were treated with aqueous test solutions, prepared from 10,000 ppm DMSO stock solutions, by a liquid handling robot. After drying, eggs (˜30 per well) were infested onto a netted lid which was suspended above the diet. The eggs hatch and L1 larvae move down to the diet. The samples were assessed for mortality 9 days after infestation.

[9] = test system: Diabrotica balteata (corn root worm); test: Diabrotica balteata (corn root worm), sprayed maize sprouts; conditions: 96 h, application rate 200 ppm, L2 larvae, 4 days after infestation, read-out: control in at least one of the two categories (mortality or growth inhibition)
Description: Maize sprouts placed onto an agar layer in 24-well microtiter plates were treated with aqueous test solutions prepared from 10,000 ppm DMSO stock solutions by spraying. After drying, the plates were infested with L2 larvae (6 to 8 per well). The samples were assessed for mortality and growth inhibition in comparison to untreated samples 4 days after infestation.

[10] = test system: Plutella xylostella (Diamond Back Moth); test: Plutella xylostella feeding/contact activity, 24-well artificial diet; conditions: 192 h, application rate 200 ppm, 24-well artificial diet, 8 days after infestation, read-out: control in at least one of the two categories (mortality or growth inhibition)
Description: 24-well microtiter plates with artificial diet were treated with aqueous test solutions prepared from 10,000 ppm DMSO stock solutions by pipetting. After drying, Plutella eggs were pipetted through a plastic stencil onto a gel blotting paper and the plate was closed with it. The samples were assessed for mortality and growth inhibition in comparison to untreated samples 8 days after infestation.

[11] = test system: Spodoptera littoralis (Egyptian Cotton Leaf Worm); test: Spodoptera littoralis feeding/contact activity; conditions: foliar, 72 h, application rate 200 ppm, L1 larvae on cotton leaf discs, 3 days after infestation, read-out: control in at least one of the three categories (mortality or growth inhibition or anti-feeding)
Description: Cotton leaf discs were placed onto agar in 24-well microtiter plates and sprayed with aqueous test solutions prepared from 10,000 ppm DMSO stock solutions. After drying the leaf discs were infested with five L1 larvae. The samples were assessed for mortality, anti-feeding and growth inhibition 3 days after infestation.

[12] = test system: Spodoptera littoralis (Egyptian Cotton Leaf Worm); test: Spodoptera littoralis systemic activity (lettuce); conditions: 144 h, test rate 12.5 ppm, root uptake in lettuce, 6 days after infestation, read-out: control in at least one of the three categories (mortality or growth inhibition or anti-feeding)
Text: Test compounds were applied by pipette prepared from 10,000 ppm DMSO stock solutions into 24-well plates and mixed with agar. Lettuce seeds were placed onto the agar and the multi well plate was closed by another plate which contained also agar. After 7 days the compound was absorbed by the roots and the lettuce grew into the lid plate. The lettuce leaves were then cut off into the lid plate. Spodoptera eggs were pipetted through a plastic stencil onto a humid gel blotting paper and the lid plate was closed with it. The samples were assessed for mortality, anti-feeding and growth inhibition 6 days after infestation.

[13] = test system: Thrips tabaci (Onion thrips); test: Thrips tabaci feeding/contact activity; conditions: foliar, 144 h, application rate 200 ppm, sunflower leaf discs, 6 days after infestation, read-out: control in at least one of the two categories (mortality or anti-feeding)
Description: Sunflower leaf discs were placed on agar in 24-well microtiter plates and sprayed with aqueous test solutions prepared from 10,000 ppm DMSO stock solutions. After drying the leaf discs were infested with a thrips population of mixed ages. The samples were assessed for mortality, and anti-feeding 6 days after infestation.

[14] = test system: Nilaparvata lugens (Brown Plant Hopper); test: Nilaparvata lugens larvicide, feeding/contact; conditions: 168 h, test rate 200 ppm, N3 nymphs on sprayed rice plants, 7 days after treatment, read-out: control in at least one of the two categories (mortality or growth inhibition)
Description: Rice plants were treated with the diluted test solutions in a spray chamber. After drying plants were infested with ˜20 N3 nymphs. 7 days after the treatment samples were assessed for mortality and growth inhibition.

[15] = test system: Nilaparvata lugens (Brown Plant Hopper); test: Nilaparvata lugens larvicide, systemic into water; conditions: 168 h, test rate 12.5 ppm, into nutritive solution of rice plants, N3 nymphs, 7 days after infestation, read-out: control in at least one of the two categories (mortality or growth inhibition)
Description: Rice plants cultivated in a nutritive solution were treated with the diluted test solutions into nourishing cultivation system. 1 day after application plants were infested with ˜20 N3 nymphs. 7 days after infestation samples were assessed for mortality and growth inhibition.

C[C@H](NC(=O)c1cc(C(F)(F)F)cc(C(F)(F)F)c1)c1ncnn1-c1ncccn1 [Compound 17]
≥ 80%: percent control (mortality or growth inhibition) at 50 ppm [1] | mortality at 200 ppm [2] | mortality at 12.5 ppm [3] | mortality at 200 ppm [4] | percent control (mortality or growth inhibition) at 200 ppm [5] | mortality at 24 ppm [6] | percent control (mortality or growth inhibition) at 50 ppm [7] | mortality at 500 ppm [8] | percent control (mortality or growth inhibition) at 200 ppm [9] | percent control (mortality or growth inhibition) at 200 ppm [10] | percent control (mortality, anti-feedant effect or growth inhibition) at 200 ppm [11] | percent control (mortality, anti-feedant effect or growth inhibition) at 12.5 ppm [12] | percent control (mortality, anti-feedant effect or growth inhibition) at 200 ppm [13]

CC(c1ncnn1-c1ncccn1)N(CC1CC1)C(=O)c1cc(Cl)cc(OC(F)(F)F)c1 (stereo not shown) [Compound 26]
≥ 80%: percent control (mortality or growth inhibition) at 200 ppm [14] | percent control (mortality or growth inhibition) at 50 ppm [1] | percent control (mortality or growth inhibition) at 12.5 ppm [15] | mortality at 200 ppm [2] | mortality at 12.5 ppm [3] | mortality at 200 ppm [4] | percent control (mortality or growth inhibition) at 50 ppm [7] | mortality at 500 ppm [8] | percent control (mortality or growth inhibition) at 200 ppm [9] | percent control (mortality or growth inhibition) at 200 ppm [10] | percent control (mortality, anti-feedant effect or growth inhibition) at 200 ppm [11] | percent control (mortality, anti-feedant effect or growth inhibition) at 12.5 ppm [12]

CCN(C(=O)c1cc(C(F)(F)F)cc(C(F)(F)F)c1)C(C)c1ncnn1-c1ncccn1 (stereo not shown) [Compound 39]
≥ 80%: percent control (mortality or growth inhibition) at 200 ppm [14] | percent control (mortality or growth inhibition) at 50 ppm [1] | percent control (mortality or growth inhibition) at 12.5 ppm [15] | mortality at 200 ppm [2] | mortality at 12.5 ppm [3] | mortality at 200 ppm [4] | percent control (mortality or growth inhibition) at 200 ppm [5] | mortality at 24 ppm [6] | percent control (mortality or growth inhibition) at 50 ppm [7] | mortality at 500 ppm [8] | percent control (mortality or growth inhibition) at 200 ppm [9] | percent control (mortality or growth inhibition) at 200 ppm [10] | percent control (mortality, anti-feedant effect or growth inhibition) at 200 ppm [11] | percent control (mortality, anti-feedant effect or growth inhibition) at 12.5 ppm [12] | percent control (mortality, anti-feedant effect or growth inhibition) at 200 ppm [13]

CC(c1ncnn1-c1ccccn1)N(CC1CC1)C(=O)c1cc(C(F)(F)F)cc(C(F)(F)F)c1 (stereo not shown) [Compound 74]
≥ 80%: percent control (mortality or growth inhibition) at 50 ppm [1] | percent control (mortality or growth inhibition) at 12.5 ppm [15] | mortality at 200 ppm [2] | percent control (mortality or growth inhibition) at 50 ppm [7] | mortality at 500 ppm [8] | percent control (mortality or growth inhibition) at 200 ppm [9] | percent control (mortality or growth inhibition) at 200 ppm [10] | percent control (mortality, anti-feedant effect or growth inhibition) at 200 ppm [11] | percent control (mortality, anti-feedant effect or growth inhibition) at 12.5 ppm [12]
